Experimental data as given in the supplement of paper PMC10307832.

How the values were obtained:
Test in all cases: relative viability (nuclei count vs DMSO), 5 days (fraction); higher = more cells survive
Fedratinib + Linsitinib = compound: Cc1cnc(Nc2ccc(OCCN3CCCC3)cc2)nc1Nc1cccc(S(=O)(=O)NC(C)(C)C)c1 [Fedratinib] + C[C@]1(O)C[C@@H](c2nc(-c3ccc4ccc(-c5ccccc5)nc4c3)c3c(N)nccn32)C1 [Linsitinib] (partner 1 µM)
Method in brief: (§1)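 Medians of duplicate plates are given as relative viability. That measure is the nuclei count in treated wells divided by the count in vehicle wells. Counts were taken on 4× images of lung cancer cell lines in 1536-well plates, 5 days after pin-tool dosing the day after seeding with one drug alone or a fixed anchor-drug dose plus five library-drug doses (not always all listed) in √10 steps.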

GW-2580 + Luminespib = compound: COC1=CC=C(C=C1)COC2=C(C=C(C=C2)CC3=CN=C(N=C3N)N)OC [GW-2580] + CCNC(=O)c1noc(-c2cc(C(C)C)c(O)cc2O)c1-c1ccc(CN2CCOCC2)cc1 [Luminespib] (partner 0.01 µM)
Method in brief: as §1

Fedratinib + Decitabine = compound: Cc1cnc(Nc2ccc(OCCN3CCCC3)cc2)nc1Nc1cccc(S(=O)(=O)NC(C)(C)C)c1 [Fedratinib] + Nc1ncn([C@H]2C[C@H](O)[C@@H](CO)O2)c(=O)n1 [Decitabine] (partner 2 µM)
Method in brief: as §1

GW-2580 + Olaparib = compound: COC1=CC=C(C=C1)COC2=C(C=C(C=C2)CC3=CN=C(N=C3N)N)OC [GW-2580] + O=C(c1cc(Cc2n[nH]c(=O)c3ccccc23)ccc1F)N1CCN(C(=O)C2CC2)CC1 [Olaparib] (partner 8 µM)
Method in brief: as §1

Fedratinib + Foretinib = compound: Cc1cnc(Nc2ccc(OCCN3CCCC3)cc2)nc1Nc1cccc(S(=O)(=O)NC(C)(C)C)c1 [Fedratinib] + COc1cc2c(Oc3ccc(NC(=O)C4(C(=O)Nc5ccc(F)cc5)CC4)cc3F)ccnc2cc1OCCCN1CCOCC1 [Foretinib] (partner 0.25 µM)
Method in brief: as §1

Fedratinib + Crizotinib = compound: Cc1cnc(Nc2ccc(OCCN3CCCC3)cc2)nc1Nc1cccc(S(=O)(=O)NC(C)(C)C)c1 [Fedratinib] + C[C@@H](Oc1cc(-c2cnn(C3CCNCC3)c2)cnc1N)c1c(Cl)ccc(F)c1Cl [Crizotinib] (partner 1 µM)
Method in brief: as §1

Row | Cell Line | relative viability (Fedratinib + Linsitinib; first compound 0.1 µM) | relative viability (Fedratinib + Linsitinib; first compound 0.3162 µM) | relative viability (Fedratinib + Linsitinib; first compound 1 µM) | relative viability (GW-2580 + Luminespib; first compound 0.08 µM) | relative viability (GW-2580 + Luminespib; first compound 0.8 µM) | relative viability (GW-2580 + Luminespib; first compound 2.53 µM) | relative viability (GW-2580 + Luminespib; first compound 8 µM) | relative viability (Fedratinib + Decitabine; first compound 0.1 µM) | relative viability (Fedratinib + Decitabine; first compound 0.3162 µM) | relative viability (Fedratinib + Decitabine; first compound 1 µM) | relative viability (GW-2580 + Olaparib; first compound 0.08 µM) | relative viability (GW-2580 + Olaparib; first compound 0.8 µM) | relative viability (GW-2580 + Olaparib; first compound 2.53 µM) | relative viability (GW-2580 + Olaparib; first compound 8 µM) | relative viability (Fedratinib + Foretinib; first compound 0.1 µM) | relative viability (Fedratinib + Foretinib; first compound 0.3162 µM) | relative viability (Fedratinib + Foretinib; first compound 1 µM) | relative viability (Fedratinib + Crizotinib; first compound 0.1 µM) | relative viability (Fedratinib + Crizotinib; first compound 0.3162 µM) | relative viability (Fedratinib + Crizotinib; first compound 1 µM)
1 | 201T | 1.03 | 1.02 | 0.974 | 1.04 | 1.04 | 1.08 | 0.988 | 0.78 | 0.855 | 0.877 | 0.896 | 0.73 | 0.887 | 0.794 | 1.1 | 1.08 | 0.895 | 1.01 | 1.04 | 0.99
2 | A549 | 0.56 | 0.539 | 0.601 | – | – | – | – | 0.121 | 0.302 | 0.257 | 0.396 | 0.527 | 0.267 | 0.301 | 0.896 | 0.938 | 0.892 | 0.638 | 0.609 | 0.687
3 | A-427 | 1.13 | 1.05 | 1.11 | 1.1 | 0.83 | 0.927 | 0.798 | 0.596 | 0.561 | 0.524 | 0.76 | 0.711 | 0.756 | 0.737 | 1.04 | 1 | 1.05 | 0.802 | 0.755 | 0.686
4 | ABC-1 | 0.625 | 0.859 | 0.713 | 0.637 | 0.505 | 0.391 | 0.518 | 0.976 | 1.09 | 1.01 | 0.774 | 0.634 | 1.43 | 0.824 | 1.03 | 1.22 | 0.96 | 0.566 | 1.1 | 0.769
5 | BEN | 0.779 | 0.914 | 0.852 | 0.353 | 0.332 | 0.29 | 0.264 | 0.582 | 0.693 | 0.608 | 0.877 | 1.12 | 1.03 | 0.962 | 0.685 | 0.683 | 0.472 | 0.716 | 0.91 | 0.784
6 | CAL-12T | 0.739 | 0.819 | 0.853 | 0.335 | 0.439 | 0.347 | 0.575 | – | – | – | 0.743 | 0.817 | 0.726 | 0.69 | 0.934 | 0.992 | 1.08 | 0.262 | 0.588 | 0.322
7 | COR-L23 | 1.04 | 0.906 | 0.759 | 0.875 | 0.774 | 0.828 | 0.808 | 0.4 | 0.416 | 0.177 | 0.422 | 0.375 | 0.294 | 0.406 | 0.912 | 0.838 | 0.921 | 0.55 | 0.526 | 0.486
8 | COR-L 105 | 0.951 | 0.817 | 0.827 | 0.63 | 0.588 | 0.681 | 0.647 | 0.669 | 0.611 | 0.511 | 0.658 | 0.633 | 0.909 | 0.68 | 0.866 | 1.03 | 0.676 | 0.539 | 0.686 | 0.391
